According to patent publication US6809233B2, “DNA sequences for an amino acid transporter plasmids, bacteria, yeasts and plants containing a transporter and their use” (Hoechst Schering AgrEvo GmbH, priority 1992, dated 2004):

Biological target: T1, amino acid transporter (PPP1-20, SEQ ID No. 1) in 22574d::PPP1-20 yeast strain (Arabidopsis thaliana, UniProt Q42400)
T1 construct: expressed in transfected cells; host or cells: Saccharomyces cerevisiae strain 22574d transformed with pFL61-ppp1-20
T1 sequence (Q42400 1-485): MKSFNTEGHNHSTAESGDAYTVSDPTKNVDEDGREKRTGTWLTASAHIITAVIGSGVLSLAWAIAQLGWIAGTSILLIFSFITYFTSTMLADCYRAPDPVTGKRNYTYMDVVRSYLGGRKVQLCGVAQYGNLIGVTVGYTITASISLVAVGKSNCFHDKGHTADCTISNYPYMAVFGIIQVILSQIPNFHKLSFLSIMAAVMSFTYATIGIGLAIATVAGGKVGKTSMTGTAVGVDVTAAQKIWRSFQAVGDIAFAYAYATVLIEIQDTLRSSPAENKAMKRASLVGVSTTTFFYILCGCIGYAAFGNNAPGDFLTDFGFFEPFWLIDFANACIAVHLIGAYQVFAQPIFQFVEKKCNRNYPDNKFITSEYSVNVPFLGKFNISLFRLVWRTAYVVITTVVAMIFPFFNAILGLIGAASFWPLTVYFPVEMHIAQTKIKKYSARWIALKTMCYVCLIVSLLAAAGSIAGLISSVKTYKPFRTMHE
Experiment: Competition of 14C-L-proline uptake by excess of amino acids and analogues in 22574d::PPP1-20 yeast strain
Assay type: cell-based
Description: After centrifuging the culture, the cells are washed and taken up in 100 mm tris/HCl pH 4.5, 2 mM MgCl2 and 0.6M sorbitol. Around 100 μL of the suspension was added to a solution of 0.5 mM L-proline plus 1 μCi ^14C labeled L-proline in 100 μL of the same buffer. The uptake of the labeled amino acid was measured by the process described by Cirillo (1989, Meth Enzymol 174: 617-622). The uptake of the labeled amino acid was compared, on the one hand, in co-incubation with protein modifying substance diethyl pyrocarbonate which is an inhibitor of the amino acid transport in membrane vesicles from Beta vulgaris, and, on the other hand, in co-incubation with other protein modifying substances. A competition experiment in which the specificity of the transporter could be read off with various amino acids and analogues is shown in Table II for PPP1-20 and in FIG. 4 for AAP2. An analogous experiment in which a competition for histidine uptake in the line JT16::AAP2 was tested is described in Example 5.

SMILES: O=C(O)[C@H]1NCC(O)C1O (some centres unmarked) [3,4-di-OH proline]
- % remaining transport activity (1 x excess of competitor): 86%
- % remaining transport activity (10 x excess of competitor): 49%
